According to PubChem BioAssay AID1963868 (Molecular Pharmacology Branch, DTP, NCI, 2024):
pIC50: −log10 of the molar value.

Test system: KRAS PDC tumor spheroids (HUVEC+MSC), viability
Experiment: Anticancer human tumor 254851-301-R-J1-PDC patient-derived colon carcinoma cell line growth inhibition [KRAS2]
Conditions: for pIC50: curve of first compound; for viability, T/C: stronger effect = lower value; for IC50: compound alone
Excerpt: Multicellular complex tumor spheroid response to RAS pathway inhibitors in combination with a targeted agents in patient-derived cell lines with oncogenic KRAS variants from multiple cancer types
A high-throughput screen of multi-cell type tumor spheroids was designed to identify active combinations of targeted small molecules and KRAS pathway inhibitors. Complex spheroids include a stromal component modeled by human endothelial cells (HUVEC) and fibroblasts modeled by human mesenchymal stem cells (MSCs). The concentration ranges selected for each drug and investigational agent were based upon clinically achievable concentrations if the clinical Cmax of the agent was known.
Compounds. The drugs and investigational agents: BI-3406 (NSC825286), BAY-293 (NSC824723), batoprotafib (TNO155; NSC825523), sotorasib (AMG 510; NSC818433), MRTX1257 (NSC819558), elimusertib (BAY 1895344; NSC800525), molibresib (GSK525762; NSC774829), temuterkib (LY3214996; NSC803410), venetoclax (NSC766270), alisertib (NSC759677), olaparib (NSC753686), talazoparib (NSC767125), erdafitinib (NSC781556), ipatasertib (NSC767898), cabozantinib (NSC761068), nintedanib (NSC756659), abemaciclib (NSC768073), docetaxel (NSC628503), trametinib (NSC758246), and sapanisertib (NSC764658) were obtained from the National Cancer Institute (NCI) Developmental Therapeutics Program Chemical Repository. The FDA-approved anticancer drug set is available from the Developmental Therapeutics Program. […] The stock solutions were prepared in dimethyl sulfoxide (DMSO, Sigma-Aldrich, St. Louis, MO, cat. D2650) at 800-fold the tested concentration and stored at -70 degrees C prior to their use. All drugs and investigational agents were tested over a range starting from a high concentration at or near the clinical Cmax and decreasing in half-log increments. If the clinical Cmax for an agent had not been determined, the highest concentration tested was 10 microM.
Cell Culture. All cells were maintained in an incubator at 37 degrees C and 5% CO2 with 95% humidity. The PDC lines were cultured according to standard operating procedures established by the NCI PDMR (https://pdmr.cancer.gov/sops/default.htm). Briefly, all PDCs were thawed and cultured in Matrigel-coated flasks prepared with a working solution of 1X Ham's F-12 nutrient mix, without supplementation (Invitrogen, Waltham, MA, cat. 11765054), 100 U/mL penicillin-streptomycin (Invitrogen, cat. 15140122), and 2.5% Matrigel (Corning Inc., Corning, NY, cat. 354248) for the first three passages. All PDCs were cultured in complete DMEM/F-12 media containing advanced DMEM/F-12 (Invitrogen, cat. 12634028), 4.9% defined fetal bovine serum, heat inactivated (HyClone Laboratories Inc., Logan, UT, cat. SH30070.03HI), 389 ng/mL hydrocortisone (Sigma-Aldrich, cat. H4001), 9.7 ng/mL human EGF recombinant protein (Invitrogen, cat. PHG0313), 23.4 microg/mL adenine (Sigma-Aldrich, cat. A2786), 97.3 U/mL penicillin-streptomycin (Invitrogen, cat. 15140122), 1.9 mM L-glutamine (Invitrogen, cat. 25030081), and 9.7 microM Y-27632 dihydrochloride (Tocris Bioscience, Bristol, United Kingdom, cat. 1254). The PDCs were cultured in complete DMEM/F12 media without 9.7 microM Y-27632 dihydrochloride for at least two passages prior to the screen. The established cell line HOP-62 was cultured in RPMI 1640 medium, HEPES (Invitrogen, cat. 22400105) with 10% defined fetal bovine serum (HyClone Laboratories Inc., cat. SH30070.03) and 2 mM L-glutamine (Invitrogen, cat. 25030081). The pooled donor HUVEC were cultured in endothelial cell growth medium 2 (PromoCell, Heidelberg, Germany, cat. C-22011) and the hMSC were cultured in mesenchymal stem cell growth medium 2 (PromoCell, cat. C-28009). For all experiments, HUVEC and hMSC were used at passages </=5, while the malignant cell lines were used at passages </=15. […]

[1] = second compound 0.1 µM, first compound 0.0316 µM
[2] = second compound 0.1 µM, first compound 0.1 µM
[3] = second compound 0.316 µM, first compound 0.0316 µM
[4] = second compound 0.316 µM, first compound 0.1 µM
[5] = second compound 1 µM, first compound 0.0316 µM
[6] = second compound 1 µM, first compound 0.1 µM
[7] = second compound 3.16 µM, first compound 0.0316 µM
[8] = second compound 3.16 µM, first compound 0.1 µM
[9] = second compound 10 µM, first compound 0.0316 µM
[10] = second compound 10 µM, first compound 0.1 µM
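Also: spheroids exposed to compounds for seven days before readout.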
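For viability, T/C in this document: 100% = DMSO vehicle control luminescence of the spheroids.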

CC(C)NCC(C(=O)N1CCN(c2ncnc3c2C(C)CC3O)CC1)c1ccc(Cl)cc1 (stereo unspecified) + CNCc1ccccc1-c1csc(C(C)Nc2nc(C)nc3cc(OC)c(OC)cc23)c1
pIC50 (second compound 0.1 µM): < 5.00 | pIC50 (second compound 0.316 µM): < 5.00 | pIC50 (second compound 1 µM): < 5.00 | pIC50 (second compound 3.16 µM): < 5.00 | pIC50 (second compound 10 µM): > 7.50 | viability, T/C [1]: 105% | viability, T/C [2]: 99.1% | viability, T/C (second compound 0.1 µM, first compound 0.316 µM): 93.3% | viability, T/C (second compound 0.1 µM, first compound 1 µM): 92% | viability, T/C (second compound 0.1 µM, first compound 3.16 µM): 99.1% | viability, T/C (second compound 0.1 µM, first compound 10 µM): 92.1% | viability, T/C [3]: 107% | viability, T/C [4]: 111% | viability, T/C (second compound 0.316 µM, first compound 0.316 µM): 93.4% | viability, T/C (second compound 0.316 µM, first compound 1 µM): 89.5% | viability, T/C (second compound 0.316 µM, first compound 3.16 µM): 95.6% | viability, T/C (second compound 0.316 µM, first compound 10 µM): 93.5% | viability, T/C [5]: 94.8% | viability, T/C [6]: 94% | viability, T/C (second compound 1 µM, first compound 0.316 µM): 80.3% | viability, T/C (second compound 1 µM, first compound 1 µM): 84.5% | viability, T/C (second compound 1 µM, first compound 3.16 µM): 83.2% | viability, T/C (second compound 1 µM, first compound 10 µM): 89.4% | viability, T/C [7]: 78.6% | viability, T/C [8]: 67.8% | viability, T/C (second compound 3.16 µM, first compound 0.316 µM): 56% | viability, T/C (second compound 3.16 µM, first compound 1 µM): 73.1% | viability, T/C (second compound 3.16 µM, first compound 3.16 µM): 56.5% | viability, T/C (second compound 3.16 µM, first compound 10 µM): 52.6% | viability, T/C [9]: 0.18% | viability, T/C [10]: 0.19% | viability, T/C (second compound 10 µM, first compound 0.316 µM): 0.17% | viability, T/C (second compound 10 µM, first compound 1 µM): 0.17% | viability, T/C (second compound 10 µM, first compound 3.16 µM): 0.16% | viability, T/C (second compound 10 µM, first compound 10 µM): 0.22%

CNCc1ccccc1-c1csc(C(C)Nc2nc(C)nc3cc(OC)c(OC)cc23)c1 (stereo unspecified)
viability, T/C (compound 0.1 µM): 95.8% [middle of 17 runs] | viability, T/C (compound 0.316 µM): 99.9% [middle of 16 runs] | viability, T/C (compound 10 µM): 0.17% [middle of 15 runs] | IC50 (run of 07/12/2021): 4.73 µM [middle of 6 runs] | IC50 (run of 07/19/2021): 4.58 µM [middle of 5 runs] | IC50 (run of 07/26/2021): 2.42 µM [middle of 6 runs]

CN(C)C/C=C/C(=O)Nc1cc2c(Nc3ccc(F)c(Cl)c3)ncnc2cc1O[C@H]1CCOC1 + CC1OCC2(CCN(c3cnc(Sc4ccnc(N)c4Cl)c(N)n3)CC2)C1N
pIC50 (second compound 0.1 µM): < 7.00 | pIC50 (second compound 0.316 µM): < 7.00 | pIC50 (second compound 1 µM): < 7.00 | pIC50 (second compound 3.16 µM): < 7.00 | pIC50 (second compound 10 µM): 7.20 | viability, T/C (second compound 0.1 µM, first compound 0.000316 µM): 105% | viability, T/C (second compound 0.1 µM, first compound 0.001 µM): 106% | viability, T/C (second compound 0.1 µM, first compound 0.00316 µM): 92.8% | viability, T/C (second compound 0.1 µM, first compound 0.01 µM): 90.2% | viability, T/C [1]: 84.5% | viability, T/C [2]: 65.2% | viability, T/C (second compound 0.316 µM, first compound 0.000316 µM): 94.5% | viability, T/C (second compound 0.316 µM, first compound 0.001 µM): 84.3% | viability, T/C (second compound 0.316 µM, first compound 0.00316 µM): 82.8% | viability, T/C (second compound 0.316 µM, first compound 0.01 µM): 80.2% | viability, T/C [3]: 83.4% | viability, T/C [4]: 68% | viability, T/C (second compound 1 µM, first compound 0.000316 µM): 95.9% | viability, T/C (second compound 1 µM, first compound 0.001 µM): 84.2% | viability, T/C (second compound 1 µM, first compound 0.00316 µM): 88.1% | viability, T/C (second compound 1 µM, first compound 0.01 µM): 91.8% | viability, T/C [5]: 79.8% | viability, T/C [6]: 75.8% | viability, T/C (second compound 3.16 µM, first compound 0.000316 µM): 67.6% | viability, T/C (second compound 3.16 µM, first compound 0.001 µM): 64.1% | viability, T/C (second compound 3.16 µM, first compound 0.00316 µM): 62.8% | viability, T/C (second compound 3.16 µM, first compound 0.01 µM): 60.4% | viability, T/C [7]: 59% | viability, T/C [8]: 51.6% | viability, T/C (second compound 10 µM, first compound 0.000316 µM): 85.5% | viability, T/C (second compound 10 µM, first compound 0.001 µM): 97.7% | viability, T/C (second compound 10 µM, first compound 0.00316 µM): 66.9% | viability, T/C (second compound 10 µM, first compound 0.01 µM): 81.5% | viability, T/C [9]: 51.6% | viability, T/C [10]: 46.8%
